Measurements as given in publication PMC10444810, “Induction of open-form bile canaliculus formation by hepatocytes for evaluation of biliary drug excretion” (Communications Biology, 2023).
Where two headings read alike, the source gives them in different places.

How the values were obtained:
CYP1A2 = CYP1A2 (Homo sapiens, UniProt P05177)
P-gp = P-gp (Homo sapiens, UniProt P08183); settings: two donors (HUM181001B), 1 μCi/ml, 120 min
Method: The cells were incubated in a 37°C water bath, and 200 μl of TB was collected from the lower chamber (bile side) at 30, 60, 90, and 120 min. An equal amount of TB was immediately added after every sampling point. […] The apparent permeability coefficient Papp (cm/s) was estimated using Eq. (2). Here, Q, A, and C0 indicate the recovered amount of the compound on the bile side, the surface area of the insert membrane (0.3 cm^2), and the initial concentration of the substrate, respectively.2 Papp=dQ/dt/(A×C0)

[1] = test system: sandwich-cultured PXB-cells; settings: human, 1 μM
[2] = Reported human in vivo biliary excretion clearance and intrinsic clearance estimated from it (Eq. 4)
[3] = cited from earlier work; for Rb: blood/plasma concentration ratio
[4] = icHep permeation assay (sinusoidal to bile side) to estimate drug biliary excretion clearance; settings: human, Biliary excretion clearance, in vitro, observed, CLbile, int, icHep (HUM181001B); CLbile,app of icHep minus control cells
in vitro = settings: human, Biliary excretion clearance, observed, CLbile, int
[5] = human, cited from earlier work
[6] = cited from earlier work
[7] = estimated from observed CLbile with fp, Rb, Qh 1400 ml/min
[8] = estimated from observed in vivo CLbile with fp, Rb and Qh 1400 ml/min

Sequence of CYP1A2 (P05177 whole entry): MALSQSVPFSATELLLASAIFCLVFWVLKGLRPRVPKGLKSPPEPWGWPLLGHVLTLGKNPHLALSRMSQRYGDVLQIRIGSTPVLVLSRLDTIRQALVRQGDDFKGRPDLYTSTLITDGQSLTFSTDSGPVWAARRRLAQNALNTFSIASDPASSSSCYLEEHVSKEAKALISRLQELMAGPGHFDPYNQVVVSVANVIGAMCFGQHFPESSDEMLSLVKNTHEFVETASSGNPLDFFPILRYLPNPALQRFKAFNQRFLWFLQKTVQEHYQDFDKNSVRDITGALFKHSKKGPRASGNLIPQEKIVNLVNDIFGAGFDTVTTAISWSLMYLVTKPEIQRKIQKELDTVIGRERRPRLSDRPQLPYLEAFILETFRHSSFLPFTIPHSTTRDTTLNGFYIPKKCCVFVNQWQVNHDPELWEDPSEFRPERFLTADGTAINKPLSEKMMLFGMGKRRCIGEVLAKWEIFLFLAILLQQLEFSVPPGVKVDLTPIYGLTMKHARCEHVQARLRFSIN
Sequence of P-gp (P08183 whole entry): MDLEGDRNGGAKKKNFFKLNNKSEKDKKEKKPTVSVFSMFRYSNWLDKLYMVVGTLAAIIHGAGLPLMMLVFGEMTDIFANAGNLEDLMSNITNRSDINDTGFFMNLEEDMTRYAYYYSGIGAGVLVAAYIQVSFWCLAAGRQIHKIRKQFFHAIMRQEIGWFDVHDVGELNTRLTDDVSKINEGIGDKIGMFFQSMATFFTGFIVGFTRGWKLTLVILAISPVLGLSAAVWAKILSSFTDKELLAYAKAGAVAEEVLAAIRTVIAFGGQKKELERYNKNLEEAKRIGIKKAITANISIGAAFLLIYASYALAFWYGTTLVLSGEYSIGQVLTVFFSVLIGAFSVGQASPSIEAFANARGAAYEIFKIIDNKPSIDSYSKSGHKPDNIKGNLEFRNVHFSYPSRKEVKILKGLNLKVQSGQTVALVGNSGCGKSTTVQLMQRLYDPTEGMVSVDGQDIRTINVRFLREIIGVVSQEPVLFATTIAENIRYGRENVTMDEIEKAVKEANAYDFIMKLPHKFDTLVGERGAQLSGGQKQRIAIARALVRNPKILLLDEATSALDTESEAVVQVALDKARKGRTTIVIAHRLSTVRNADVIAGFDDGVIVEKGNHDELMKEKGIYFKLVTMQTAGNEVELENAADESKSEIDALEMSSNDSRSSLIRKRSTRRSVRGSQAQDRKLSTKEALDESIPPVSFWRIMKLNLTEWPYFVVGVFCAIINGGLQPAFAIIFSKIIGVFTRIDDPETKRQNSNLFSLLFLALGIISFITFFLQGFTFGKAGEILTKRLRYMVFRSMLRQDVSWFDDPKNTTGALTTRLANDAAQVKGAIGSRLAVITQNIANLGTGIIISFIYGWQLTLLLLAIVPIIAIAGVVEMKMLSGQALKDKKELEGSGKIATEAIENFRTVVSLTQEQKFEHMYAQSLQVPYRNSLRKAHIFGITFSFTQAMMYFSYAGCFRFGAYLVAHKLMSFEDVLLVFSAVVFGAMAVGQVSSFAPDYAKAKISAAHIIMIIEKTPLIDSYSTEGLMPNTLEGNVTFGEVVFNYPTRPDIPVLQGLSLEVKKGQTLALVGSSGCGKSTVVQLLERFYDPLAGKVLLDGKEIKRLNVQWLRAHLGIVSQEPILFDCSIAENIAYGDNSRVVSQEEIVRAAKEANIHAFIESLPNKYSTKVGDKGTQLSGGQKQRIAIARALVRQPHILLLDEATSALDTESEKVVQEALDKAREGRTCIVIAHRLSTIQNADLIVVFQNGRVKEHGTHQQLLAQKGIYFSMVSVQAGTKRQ

| SMILES | BEI (%) Mean ([1]; 2 min) [%] | Predicted in vivo CLbile, int, Mean ([1]; 2 min) [mL/min] | BEI (%) Mean ([1]; 5 min) [%] | Predicted in vivo CLbile, int, Mean ([1]; 5 min) [mL/min] | BEI (%) Mean ([1]; 10 min) [%] | Predicted in vivo CLbile, int, Mean ([1]; 10 min) [mL/min] | BEI (%) Mean ([1]; 20 min) [%] | Predicted in vivo CLbile, int, Mean ([1]; 20 min) [mL/min] | Observed in vivo CLbile, int [2, 7] [mL/min] | Observed in vivo CLbile, int [2, 8] [mL/min] | other results |
| --- | --- | --- | --- | --- | --- | --- | --- | --- | --- | --- | --- |
| CC(=O)Nc1ccc(O)cc1 [Acetaminophen] | – | – | – | – | – | – | – | – | – | – | Enzyme activity, Mean (CYP1A2): 0.950 pmol/min/106 cells |
| C[C@H]1O[C@@H](O[C@H]2[C@@H](O)C[C@H](O[C@H]3[C@@H](O)C[C@H](O[C@H]4CC[C@@]5(C)[C@H](CC[C@@H]6[C@@H]5C[C@@H](O)[C@]5(C)[C@@H](C7=CC(=O)OC7)CC[C@]65O)C4)O[C@@H]3C)O[C@@H]2C)C[C@H](O)[C@@H]1O [Digoxin, digoxin] | 21.9 | 703 | 28.3 | 410 | 44.9 | 439 | 37.1 | 152 | 154 | 154 | permeability to the bile side in icHep compared to the control (P-gp): significantly increased |
| CCOc1ccc2ccccc2c1C(=O)N[C@@H]1C(=O)N2[C@@H]1SC(C)(C)[C@@H]2C(=O)O [Nafcillin, nafcillin] | 57.4 | 3401 | 42.7 | 1026 | 40.6 | 340 | 70.9 | 608 | 1213 | 1213 | Rb ([3]; reported value): 0.55; Rb [3]: 0.55; Rb, blood/plasma concentration ratio ([3]; reported value): 0.55[43]; hepatocyte CLint at 1 μM [4]: 1.07 ± 0.14 µL/min/1e6 cells; hepatocyte CLint at 1 μM (in vitro): 2.22 ± 1.01 µL/min/1e6 cells; Observed in vivo CLbile ([5]; reported in vivo biliary excretion clearance): 125 mL/min; Observed in vivo CLbile ([5]; reported value): 125 mL/min; fp, unbound fraction of the plasma protein ([6]; reported value): 0.123[43]; fp ([6]; unbound fraction of the plasma protein): 0.123; fp ([6]; unbound fraction, reported value): 0.123 |
